Experimental data reported in patent US20260125371A1, “METHOD FOR INHIBITING CLOSTRIDIOIDES DIFFICILE SPORE GERMINATION” (UNIVERSITY OF NOTRE DAME DU LAC, priority 2022, published 2026).
Converted amounts (≈) assume the structure as drawn. “And” between values parts separate entries of the source, which are not always exact repeats. Identical values can stand only once. Like-named read-outs stand apart in the source and are kept apart here.

Tests used:
[1] = test system: C. difficile strain ATCC43255 spores; assay: Spore germination inhibition assay; type: cell-based, Clostridioides difficile; conditions: compound 45 μM, germinant 6 mM taurocholate and 12 mM glycine, OD600 over 60 min, duplicate
C. difficile ATCC 43255 = assay: Determination of minimal-inhibitory concentrations (microdilution), C. difficile ATCC 43255; type: cell-based, Clostridioides difficile; conditions: for MIC: Clostridioides difficile
S. aureus = assay: MIC against S. aureus strains; type: cell-based; conditions: S. aureus ATCC 29213, 24 h; for MIC: Staphylococcus aureus, ATCC29213, 24 h, read-out: MIC (μg/mL) 24 h
[2] = C. difficile ATCC 43255, 48-h incubation
[3] = ATCC43255, 24 h, C. difficile ATCC 43255, 24 h, read-out: MIC (μg/mL) 24 h
[4] = ATCC43255, 48 h, C. difficile ATCC 43255, 48-h incubation, read-out: MIC (μg/mL) 48 h

Compound	MIC (μg/mL) 48 h (C. difficile ATCC 43255; [2])	MIC (μg/mL) 24 h (C. difficile ATCC 43255; C. difficile ATCC 43255, 24 h) [µg/mL]	MIC (μg/mL) 24 h (S. aureus) [µg/mL]	further results
O=[N+]([O-])c1c[nH]nc1-c1nc(-c2ccc(Oc3ccc(C(F)(F)F)cc3)cc2)no1 [DR-04-089]				% Spore Germination Inhibition at 45 μM [1]: 20 ± 3%; ATCC43255 MIC (C. difficile ATCC 43255; C. difficile ATCC43255): >128 µg/mL
Nc1cc(-c2nc(-c3ccc(Oc4ccc(C(F)(F)F)cc4)cc3)no2)cnc1O [Compound 15]	>128 µg/mL	>128	>128	
NCc1ccc(-c2nc(-c3ccc(Oc4ccc(C(F)(F)F)cc4)cn3)no2)cc1 [YQ-4-107]				inhibition at 45 µM ([1]; Clostridioides difficile, 1 h): 24 ± 3%
CCCOc1ccc(-c2noc(-c3ccc(O)cc3)n2)cc1 [Compound 87, 4-(3-(4-Propoxyphenyl)-1,2,4-oxadiazol-5-yl)phenol]				MIC (C. difficile ATCC 43255; [3]): 4 µg/mL (≈ 13.5 µM); MIC (C. difficile ATCC 43255; [4]): > 128 µg/mL; MIC (S. aureus): 128 µg/mL (≈ 432 µM)
FC(F)(F)c1ccc(Oc2ccc(-c3noc(-c4n[nH]cc4Cl)n3)cc2)cc1 [Compound 26]	>128 µg/mL	>128	1 (≈ 2.46 µM)	
Oc1ccc(-c2nc(-c3ccc(OC4CCC4)cc3)no2)cc1 [Compound 93, 4-(3-(4-Cyclobutoxyphenyl)-1,2,4-oxadiazol-5-yl)phenol]				MIC (C. difficile ATCC 43255; [3]): > 128 µg/mL; MIC (C. difficile ATCC 43255; [4]): > 128 µg/mL; MIC (S. aureus): > 128 µg/mL
O=C1C[C@H](c2nc(-c3ccc(Oc4ccc(C(F)(F)F)cc4)cc3)no2)CN1 [Compound 31]	>128 µg/mL	>128	>128	
FC(F)(F)c1ccc(Oc2ccc(-c3noc(-c4cn[nH]n4)n3)cc2)cc1 [Compound 35]	>128 µg/mL	>128	16 (≈ 42.9 µM)	
CC(C)(C)OC(=O)N1CCC(Nc2c[nH]nc2-c2nc(-c3ccc(Oc4ccc(C(F)(F)F)cc4)cc3)no2)CC1 [Compound 42]	>128 µg/mL	>128	>128	
O=[N+]([O-])c1c[nH]c(-c2nc(-c3ccc(Oc4ccc(C(F)(F)F)cc4)cc3)no2)c1 [Compound 47]	8 µg/mL (≈ 19.2 µM)	8 (≈ 19.2 µM)	8 (≈ 19.2 µM)	
CCCCNc1c[nH]nc1-c1nc(-c2ccc(Oc3ccc(C(F)(F)F)cc3)cc2)no1 [Compound 40]	>128 µg/mL	>128	>128	
Oc1ccc(-c2nc(-c3ccc(OC4CC4)cc3)no2)cc1 [Compound 92, 4-(3-(4-Cyclopropoxyphenyl)-1,2,4-oxadiazol-5-yl)phenol]				MIC (C. difficile ATCC 43255; [3]): > 128 µg/mL; MIC (C. difficile ATCC 43255; [4]): > 128 µg/mL; MIC (S. aureus): > 128 µg/mL
Nc1cc(-c2nc(-c3ccc(Oc4ccc(C(F)(F)F)cc4)cc3)no2)ccn1 [Compound 24]	>128 µg/mL	>128	>128	
FC(F)(F)c1ccc(Oc2ccc(-c3noc(-c4n[nH]c5ccccc45)n3)cc2)cc1 [Compound 45]	>128 µg/mL	>128	>128	
OCC#Cc1c[nH]nc1-c1nc(-c2ccc(Oc3ccc(C(F)(F)F)cc3)cc2)no1 [Compound 29]	>128 µg/mL	>128	4 (≈ 9.38 µM)	
O=[N+]([O-])c1ccc(-c2nc(-c3ccc(Oc4ccc(C(F)(F)F)cc4)cc3)no2)cc1 [Compound 19]	>128 µg/mL	>128	≥128	
FC(F)(F)c1ccc(Oc2ccc(-c3noc(-c4n[nH]cc4I)n3)cc2)cc1 [Compound 28]	128 µg/mL (≈ 257 µM)	128 (≈ 257 µM)	2 (≈ 4.01 µM)	
Nc1c[nH]nc1-c1nc(-c2ccc(Oc3ccc(C(F)(F)F)cc3)cc2)no1 [Compound 37]	>128 µg/mL	>128	4 (≈ 10.3 µM)	

Compound	MIC (μg/mL) 48 h (C. difficile ATCC 43255; [2])	MIC (μg/mL) 24 h (C. difficile ATCC 43255; C. difficile ATCC 43255, 24 h) [µg/mL]	MIC (μg/mL) 24 h (S. aureus) [µg/mL]	further results
Nc1ccc(-c2nc(-c3ccc(Oc4ccc(C(F)(F)F)cc4)cc3)no2)cc1F [Compound 20]	>128 µg/mL	>128	2 (≈ 4.82 µM)	
COc1cc(-c2nc(-c3ccc(Oc4ccc(C(F)(F)F)cc4)cc3)no2)ccc1O [Compound 13]	16 µg/mL (≈ 37.4 µM)	16 (≈ 37.4 µM)	>128	
FC(F)(F)c1ccc(Oc2ccc(-c3noc(-c4n[nH]cc4Br)n3)cc2)cc1 [Compound 27]	>128 µg/mL	>128	1 (≈ 2.22 µM)	
Oc1ccc(-c2nc(-c3ccc(Oc4ccc(C(F)(F)F)cc4)cc3)no2)cc1O [Compound 12]	128 µg/mL and >128 µg/mL	>128	2 (≈ 4.83 µM)	
FC(F)(F)c1ccc(Oc2ccc(-c3noc(-c4cc[nH]n4)n3)cc2)cc1 [Compound 25]	>128 µg/mL	>128	>128	
c1cc2cc(-c3nc(-c4ccc5occc5c4)no3)ccc2[nH]1 [Compound 120, 3-(Benzofuran-5-yl)-5-(1H-indol-5-yl)-1,2,4-oxadiazole]				MIC (C. difficile ATCC 43255; [3]): > 128 µg/mL; MIC (C. difficile ATCC 43255; [4]): > 128 µg/mL; MIC (S. aureus): 64 µg/mL (≈ 212 µM)
Cl.NCCCCc1nc(-c2ccc(OC3CCCC3)cc2)no1 [Compound 67, 4-(3-(4-(Cyclopentyloxy)phenyl)-1,2,4-oxadiazol-5-yl)butan-1-amine hydrochloride salt]				MIC (C. difficile ATCC 43255; [3]): 128 µg/mL; MIC (C. difficile ATCC 43255; [4]): 128 µg/mL; MIC (S. aureus): > 128 µg/mL
FC(F)(F)c1ccc(Oc2ccc(-c3noc(-c4c[nH]c5ncccc45)n3)cc2)cc1 [Compound 46]	>128 µg/mL	>128	>128	
FC(F)(F)c1ccc(Oc2ccc(-c3noc(-c4ccc(Br)cc4)n3)cc2)cc1 [Compound 18]	>128 µg/mL	>128	>128	
O=c1ccc(-c2nc(-c3ccc(Oc4ccc(C(F)(F)F)cc4)cc3)no2)c[nH]1 [Compound 14]	>128 µg/mL	>128	>128	
Oc1ccc(-c2cc(-c3ccc(Oc4ccccc4)cc3)no2)cc1 [Compound 135, 4-(3-(4-Phenoxyphenyl)isoxazol-5-yl)phenol]	>128 µg/mL			MIC (C. difficile ATCC 43255; [3]): > 128 µg/mL; MIC (S. aureus): > 128 µg/mL
O=C(Nc1c[nH]nc1-c1nc(-c2ccc(Oc3ccc(C(F)(F)F)cc3)cc2)no1)c1ccccc1 [Compound 44]	>128 µg/mL	>128	>128	
NCc1ccc(-c2nc(-c3ccc(OC4CCCC4)cc3)no2)cc1 [Compound 53, (4-(3-(4-(Cyclopentyloxy)phenyl)-1,2,4-oxadiazol-5-yl)phenyl) methanamine]				MIC (C. difficile ATCC 43255; [3]): 4 µg/mL (≈ 11.9 µM); MIC (C. difficile ATCC 43255; [4]): 8 µg/mL (≈ 23.9 µM); MIC (S. aureus): 2 µg/mL (≈ 5.96 µM)
Oc1ccc(-n2cc(-c3ccc(Oc4ccccc4)cc3)nn2)cc1 [Compound 136, 4-(4-(4-Phenoxyphenyl)-1H-1,2,3-triazol-1-yl)phenol]	>128 µg/mL			MIC (C. difficile ATCC 43255; [3]): > 128 µg/mL; MIC (S. aureus): > 128 µg/mL
CCC(C)Nc1c[nH]nc1-c1nc(-c2ccc(Oc3ccc(C(F)(F)F)cc3)cc2)no1 (stereo not drawn) [Compound 41]	>128 µg/mL	>128	>128	
FC(F)(F)c1ccc(Oc2ccc(-c3noc(-c4n[nH]cc4NC4CCCCC4)n3)cc2)cc1 [Compound 39]	>128 µg/mL	>128	>128	
COc1ccc(-c2nc(-c3ccc(Oc4ccc(C(F)(F)F)cc4)cc3)no2)cc1[N+](=O)[O-] [Compound 22]	>128 µg/mL	>128	>128	
O=C1C[C@@H](c2nc(-c3ccc(Oc4ccc(C(F)(F)F)cc4)cc3)no2)CN1 [Compound 32]	>128 µg/mL	>128	>128	
